According to PMC7933930, “Development of a small molecule that corrects misfolding and increases secretion of Z α1‐antitrypsin” (EMBO Molecular Medicine, 2021):

Legend:
[1] = system: Z α1‐antitrypsin polymers in CHO cells; assay: Soluble and insoluble polymers in CHO cells expressing Z α1‐antitrypsin (NP‐40 fractions, 2C1 immunoprecipitation, immunoblot); assay type: cell-based; details: pre‐treatment 48 h with 10 μM GSK716, CHO cells induced with doxycycline
Method: Figure 2 GSK716 inhibits polymerisation of Z α1‐antitrypsin in cell models of disease • A GSK716 was added to CHO‐TET‐ON‐Z‐A1AT cells (Ordóñez et al, 2013) with simultaneous induction of Z α1‐antitrypsin expression using doxycycline, and polymer load was quantified with the 2C1 monoclonal antibody that is specific to pathological polymers of α1‐antitrypsin (Miranda et al, 2010). […] Data were normalised to vehicle and a control compound from the GSK716 series at saturating concentration. […] It induced an approximately threefold increase in secreted levels of Z α1‐antitrypsin compared with vehicle control. This was apparent even after polymers had been allowed to form. Scale bar: 100 µm. Data presented as mean ± SD, n = 8 (secretion) and n = 6 (polymer inhibition). • E CHO tetracycline‐inducible cells expressing Z α1‐antitrypsin were induced with 0.5 μg/ml doxycycline for 48 h and treated with 10 μM GSK716. […] For every time point, NP‐40‐soluble and NP‐40‐insoluble fractions were separated and immunoprecipitated with the 2C1 mAb and resolved by 4–12% w/v SDS–PAGE and α1‐antitrypsin detected by immunoblotting. […] Cell viability was measured by Cell Counting Kit‐8. […] Samples were resolved by 4–12% w/v acrylamide SDS–PAGE and detected by autoradiography. • H The graphs show the effect of GSK716 on intracellular and extracellular Z α1‐antitrypsin (mean ± SEM, n = 2). […]

[2] = molecular target: T1, α1‐antitrypsin (Homo sapiens, UniProt P01009, E366K); assay: Intrahepatic α1‐antitrypsin by ELISA in Z α1‐antitrypsin transgenic mice; assay type: in vivo, mouse
T1 construct: random insertion of the human Z α1‐antitrypsin gene; from tissue; host or cells: hemizygous Z α1-antitrypsin transgenic mice (liver, plasma)
Method: Since GSK716 blocks polymer formation in cells, we explored the effect of dosing GSK716 on liver polymer levels. […] GSK716 was dosed at 100 mg/kg three times a day for 20 days. […] Liver polymer levels were investigated by staining with 2C1 anti‐polymer monoclonal antibody and were scored blind by a pathologist or by quantification using an algorithm to measure all areas of positive staining (Fig EV1). There was no difference observed in total liver polymer load when assessed by manual or quantitative scoring (Fig 6B and C). There was no significant fibrosis in any of the liver sections. Intrahepatic α1‐antitrypsin was also assessed by ELISA. The vast majority (95–100%) of α1‐antitrypsin within the liver was polymer with the monomer typically being below the level of detection. Treatment with GSK716 increased the monomer measured in liver homogenate by approx. fourfold in keeping with the changes seen in blood.

[3] = system: Cell Health; assay: Off‐target panel: Cell Health; assay type: cell-based
Method: (§1) GSK716 selectivity and PK properties were profiled in order to investigate the suitability of GSK716 for progression into in vivo studies and the potential for taking it forward as a clinical candidate for testing in humans. Since GSK716 results in loss of inhibitory activity of α1‐antitrypsin, the effect of the compound was assessed on other closely related serpins. […] Furthermore, there were no off‐target effects in a panel of assays considered predictive of known safety liabilities that precluded further development of GSK716 (Table EV1).

[4] = molecular target: KCNQ1/minK (Homo sapiens, UniProt P51787); assay: cell-based
Method: as §1

[5] = molecular target: Kv1.5 (Homo sapiens, UniProt P22460); assay: Off‐target panel: Kv1.5; assay type: cell-based; details: Blocker, read-out: Mean (PXC50)
Method: as §1

[6] = molecular target: PDE3A (Homo sapiens, UniProt Q14432); assay: Off‐target panel: PDE3A; assay type: biochemical; details: Inhibition, read-out: Mean (PXC50)
Method: as §1

[7] = molecular target: PDE4B (Homo sapiens, UniProt Q07343); assay: Off‐target panel: PDE4B; assay type: biochemical; details: Inhibition, read-out: Mean (PXC50)
Method: as §1

[8] = molecular target: T2, Serotonin 5HT3 (Homo sapiens, UniProt P46098); assay: Off‐target panel: Serotonin 5HT3 (DRX); assay type: cell-based
T2 sequence (P46098 24-478): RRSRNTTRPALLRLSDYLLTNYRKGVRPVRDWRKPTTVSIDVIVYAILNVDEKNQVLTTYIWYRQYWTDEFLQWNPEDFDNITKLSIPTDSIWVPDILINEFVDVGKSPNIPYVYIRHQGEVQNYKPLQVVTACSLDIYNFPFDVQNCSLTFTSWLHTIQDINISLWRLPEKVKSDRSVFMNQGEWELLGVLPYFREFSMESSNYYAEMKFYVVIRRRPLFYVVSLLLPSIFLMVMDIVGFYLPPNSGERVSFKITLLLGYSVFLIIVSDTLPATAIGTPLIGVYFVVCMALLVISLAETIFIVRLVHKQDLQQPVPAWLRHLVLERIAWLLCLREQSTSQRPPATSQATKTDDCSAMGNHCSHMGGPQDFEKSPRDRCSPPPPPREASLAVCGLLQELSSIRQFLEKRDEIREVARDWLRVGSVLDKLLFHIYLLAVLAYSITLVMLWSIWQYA
Method: as §1

T1 sequence (P01009 25-418 E366K): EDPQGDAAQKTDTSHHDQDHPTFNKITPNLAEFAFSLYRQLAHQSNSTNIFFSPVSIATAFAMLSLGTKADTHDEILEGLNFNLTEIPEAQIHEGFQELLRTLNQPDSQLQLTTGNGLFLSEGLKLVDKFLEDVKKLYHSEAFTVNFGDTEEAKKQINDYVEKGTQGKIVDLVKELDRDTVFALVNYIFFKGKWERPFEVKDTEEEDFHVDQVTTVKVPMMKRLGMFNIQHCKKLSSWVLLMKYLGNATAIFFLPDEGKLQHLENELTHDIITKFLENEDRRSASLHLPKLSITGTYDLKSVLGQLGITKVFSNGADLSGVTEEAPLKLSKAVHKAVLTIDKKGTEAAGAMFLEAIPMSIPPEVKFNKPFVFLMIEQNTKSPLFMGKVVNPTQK
Sequence of PDE4B (Q07343 whole entry, species assumed): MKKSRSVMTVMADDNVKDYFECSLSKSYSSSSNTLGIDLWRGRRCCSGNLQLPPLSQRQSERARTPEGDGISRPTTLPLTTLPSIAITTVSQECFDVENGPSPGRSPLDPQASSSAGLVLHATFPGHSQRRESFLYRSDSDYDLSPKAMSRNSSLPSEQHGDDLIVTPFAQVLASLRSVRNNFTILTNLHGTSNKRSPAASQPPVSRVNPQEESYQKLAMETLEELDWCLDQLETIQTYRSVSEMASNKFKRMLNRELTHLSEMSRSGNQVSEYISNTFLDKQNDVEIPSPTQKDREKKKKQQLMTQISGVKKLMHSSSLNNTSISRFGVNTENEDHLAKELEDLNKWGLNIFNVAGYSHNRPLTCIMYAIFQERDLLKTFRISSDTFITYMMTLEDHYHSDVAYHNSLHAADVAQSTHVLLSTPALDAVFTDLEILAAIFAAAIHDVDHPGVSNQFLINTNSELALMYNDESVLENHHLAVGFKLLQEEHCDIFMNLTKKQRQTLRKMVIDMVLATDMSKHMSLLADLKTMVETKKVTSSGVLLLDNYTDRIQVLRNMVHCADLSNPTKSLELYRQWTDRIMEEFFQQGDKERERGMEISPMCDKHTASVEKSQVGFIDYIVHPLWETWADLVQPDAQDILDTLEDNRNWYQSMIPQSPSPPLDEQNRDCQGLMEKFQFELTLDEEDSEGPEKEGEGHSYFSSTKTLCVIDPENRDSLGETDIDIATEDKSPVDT
Sequence of PDE3A (Q14432 whole entry, species assumed): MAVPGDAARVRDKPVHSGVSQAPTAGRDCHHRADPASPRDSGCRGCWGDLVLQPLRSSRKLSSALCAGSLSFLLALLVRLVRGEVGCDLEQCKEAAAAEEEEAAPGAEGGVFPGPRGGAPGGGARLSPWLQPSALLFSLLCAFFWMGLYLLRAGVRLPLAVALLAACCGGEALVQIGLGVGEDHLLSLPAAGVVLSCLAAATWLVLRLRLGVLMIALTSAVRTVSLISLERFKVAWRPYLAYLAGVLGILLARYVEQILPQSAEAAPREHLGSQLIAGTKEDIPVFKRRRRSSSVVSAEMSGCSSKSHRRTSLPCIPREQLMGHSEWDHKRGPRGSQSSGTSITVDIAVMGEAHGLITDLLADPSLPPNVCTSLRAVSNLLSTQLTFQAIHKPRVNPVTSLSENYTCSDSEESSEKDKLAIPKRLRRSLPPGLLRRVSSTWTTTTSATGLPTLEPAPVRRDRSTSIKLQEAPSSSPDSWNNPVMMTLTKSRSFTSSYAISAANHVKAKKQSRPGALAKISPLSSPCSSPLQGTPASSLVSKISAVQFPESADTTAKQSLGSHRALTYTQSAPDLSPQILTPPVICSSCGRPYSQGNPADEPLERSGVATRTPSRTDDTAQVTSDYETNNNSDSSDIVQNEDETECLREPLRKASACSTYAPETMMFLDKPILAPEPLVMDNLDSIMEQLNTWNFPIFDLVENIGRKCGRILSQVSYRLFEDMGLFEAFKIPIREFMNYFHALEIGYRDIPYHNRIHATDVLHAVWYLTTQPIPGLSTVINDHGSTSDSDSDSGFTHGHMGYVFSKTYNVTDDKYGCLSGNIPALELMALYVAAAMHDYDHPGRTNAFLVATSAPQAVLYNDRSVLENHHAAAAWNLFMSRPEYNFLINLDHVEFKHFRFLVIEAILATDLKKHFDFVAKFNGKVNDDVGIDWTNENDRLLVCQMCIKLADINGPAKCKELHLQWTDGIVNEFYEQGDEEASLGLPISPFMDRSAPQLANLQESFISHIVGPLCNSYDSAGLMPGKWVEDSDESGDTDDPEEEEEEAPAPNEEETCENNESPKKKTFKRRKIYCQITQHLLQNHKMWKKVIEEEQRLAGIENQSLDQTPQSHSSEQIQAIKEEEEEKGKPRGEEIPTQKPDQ
Sequence of Kv1.5 (P22460 whole entry): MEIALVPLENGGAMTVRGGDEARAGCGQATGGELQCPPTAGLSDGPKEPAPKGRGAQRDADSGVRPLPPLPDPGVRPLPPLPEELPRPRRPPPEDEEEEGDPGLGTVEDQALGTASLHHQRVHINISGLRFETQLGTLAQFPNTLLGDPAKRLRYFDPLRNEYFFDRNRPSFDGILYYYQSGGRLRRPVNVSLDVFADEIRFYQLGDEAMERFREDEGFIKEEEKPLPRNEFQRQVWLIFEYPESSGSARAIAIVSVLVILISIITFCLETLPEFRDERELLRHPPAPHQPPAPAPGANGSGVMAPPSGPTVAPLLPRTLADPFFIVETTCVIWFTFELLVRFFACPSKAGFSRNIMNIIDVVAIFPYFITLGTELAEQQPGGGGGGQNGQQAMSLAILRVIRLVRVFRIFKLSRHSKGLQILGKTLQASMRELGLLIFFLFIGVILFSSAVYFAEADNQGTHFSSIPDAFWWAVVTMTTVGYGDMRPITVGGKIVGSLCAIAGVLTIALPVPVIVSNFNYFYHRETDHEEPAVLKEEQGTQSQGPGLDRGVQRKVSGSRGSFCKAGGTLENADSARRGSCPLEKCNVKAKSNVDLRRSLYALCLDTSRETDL

## CCC[C@@H](NC(=O)c1cccc2c1CC(=O)N2)[C@@H](O)c1cccc(F)c1C [GSK716]
[1]
  formation of soluble and insoluble polymers: significantly reduced
[2]
  increase of monomer measured in liver homogenate: approx. fourfold
[3]; Membrane Permeability
  Mean (PXC50): <3.7
[3]; Mitochondrial Potential
  Mean (PXC50): 3.8
[3]; Nucleus (size)
  Mean (PXC50): <3.7
[4]
  IC50: > 25.1 µM
[5]
  IC50: > 50.1 µM
[6]
  IC50: > 100 µM
[7]
  IC50: > 100 µM
[8]
  EC50: > 50.1 µM
  IC50: 31.6 µM
